# Values quoted from earlier work as cited in patent US7416898B2, “Chemiluminescent 1,2-dioxetanes” (priority 2002, dated 2008).
# Details: compared with 1,2-dioxetanes (14) and (15)
structure (smiles),measurement,value
O=C(O)CCCOC1(c2cccc(OP(=O)(O)O)c2)OOC12C1CC3CC(C1)CC2C3 (stereo not shown) [Dioxetane 16],solubility in an aqueous system,"more soluble in an aqueous system than 1,2-dioxetane (14) and (15)"
